US20230404989A1, “GRK2 INHIBITION BY PAROXETINE AMELIORATES OSTEOARTHRITIS” (THE PENN STATE RESEARCH FOUNDATION, priority 2020, published 2023)

Key:
DMM mice [1] = experiment: Gait (stride length) in DMM mice; assay type: in vivo, mouse; conditions: daily treatment week 8 to 12, measured 12 weeks following DMM
Source text: Paroxetine normalizes changes in the gait of DMM mice. Stride length in centimeters measured for sham mice and DMM mice 12 weeks following DMM. DMM mice received respective daily treatments from week 8 until week 12 following DMM: vehicle (V) or Paroxetine (Px). **P<0.01 & ***P<0.001

PTH1R Gas/cAMP signaling = experiment: PTH-stimulated cAMP in articular cartilage explants of sham or DMM mice treated with paroxetine; design: species or system mouse; conditions: paroxetine ip 5 mg/kg/day for 8 weeks, cartilage stimulated with PTH ex vivo, 30 minutes
Experimental: Methods: Destabilization of the medial meniscus (DMM) surgery was used to simulate clinical post-traumatic OA. First, we determined the role of GRK2 inhibition in PTH1R Gas-cAMP signaling: 12 week old male mice underwent sham or DMM surgery and were treated with either vehicle or the GRK2 inhibitor “paroxetine” (ip, 5 mg/kg/day), treatment was initiated at the time of surgery and continued daily until 8 weeks. Knees were harvested and articular cartilage was obtained for ex vivo analysis of Gas activity. In ex vivo culture, cartilage explants were treated with PTH as an agonist to stimulate PTH1R-Ga-cAMP signaling. Thirty minutes following PTH stimulation, cartilage tissue was homogenized and cAMP levels were measured. Then, we determined the role of GRK2 inhibition in recovering or even potentiating PTH1R signaling in OA cartilage: 12 week old male mice underwent sham or DMM surgery, and received treatment with vehicle, PTH (sc, 40 μg/kg/day) alone, the GRK2 inhibitor “paroxetine3” (ip, 5 mg/kg/day) alone, or their combination. Treatment was initiated at week 8 following DMM surgery, where OA is in progress, and continued until week 12 where mice were sacrificed. […] Results are expressed as mean values+s.e.m. with an N=5-8 mice per experimental group. […]

DMM mice [2] = experiment: DMM mice treated with PTH, paroxetine or their combination: histology and histomorphometry (Example 1); assay type: in vivo, mouse; conditions: treatment week 8 to 12, PTH sc 40 μg/kg/day, paroxetine ip 5 mg/kg/day
Experimental: Methods: Destabilization of the medial meniscus (DMM) surgery was used to simulate clinical post-traumatic OA. First, we determined the role of GRK2 inhibition in PTH1R Gas-cAMP signaling: 12 week old male mice underwent sham or DMM surgery and were treated with either vehicle or the GRK2 inhibitor “paroxetine” (ip, 5 mg/kg/day), treatment was initiated at the time of surgery and continued daily until 8 weeks. Knees were harvested and articular cartilage was obtained for ex vivo analysis of Gas activity. In ex vivo culture, cartilage explants were treated with PTH as an agonist to stimulate PTH1R-Ga-cAMP signaling. Thirty minutes following PTH stimulation, cartilage tissue was homogenized and cAMP levels were measured. Then, we determined the role of GRK2 inhibition in recovering or even potentiating PTH1R signaling in OA cartilage: 12 week old male mice underwent sham or DMM surgery, and received treatment with vehicle, PTH (sc, 40 μg/kg/day) alone, the GRK2 inhibitor “paroxetine3” (ip, 5 mg/kg/day) alone, or their combination. Treatment was initiated at week 8 following DMM surgery, where OA is in progress, and continued until week 12 where mice were sacrificed. Knees were harvested, paraffin embedded, sectioned and stained with safranin-o and fast green for histological evaluation, OARSI scoring, and histomorphometric analysis. Results are expressed as mean values+s.e.m. with an N=5-8 mice per experimental group. Statistical analyses were performed using one ANVOA with P<0.05 representing statistical significance.

For Fc1ccc([C@@H]2CCNC[C@H]2COc2ccc3c(c2)OCO3)cc1 [paroxetine], the “changes in the gait (stride length)” value (DMM mice [1]) was “normalizes”, the “PTH/PTH1R-mediated cAMP production” value (PTH1R Gas/cAMP signaling; DMM mice) was “recovered” and the “PTH/PTH1R-mediated cAMP production” value (PTH1R Gas/cAMP signaling; sham mice) was “potentiated”. The chondrocyte number (DMM mice [2]) was “increased”, the “number of matrix-producing (anabolic) chondrocytes” value (DMM mice [2]) was “particular increase” and the uncalcified cartilage area (DMM mice [2]) was “increased”.
